Reference: patent CN113698460A, “一种大肠杆菌lipid A结合基元PCK及其制备方法与应用” (priority 2021, dated 2021)
No end group written: not given here.

Test system: 北京鸭红细胞
Test: Hemolysis of red blood cells
Assay type: cell-based, Peking duck

SYPMYARRFLFKWGLLR-NH2 [PCK, Ser Tyr Pro Met Tyr Ala Arg Arg Phe Leu Phe Lys Trp Gly Leu Leu Arg-NH2]
Toxicity to Peking duck red blood cells (PCK 0.5-128 μg/mL): 没有毒性

COc1ccc2cc3[n+](cc2c1OC)CCc1cc2c(cc1-3)OCO2 [小檗碱]
Hemolysis rate (berberine alone, concentration not given): 1%
